In data set [1] the test system is TSH. The data set can be described thus: TSH release from pituitary cells (RIA). In kind it is cell-based, rat. Conditions: 100 nM; listed as (inip)-bbFK-NH2. As to the method: (§1) Dispersion: Adult female Sprague-Dawley (160-180 g., Charles River) rats were group-caged in a 12:12 light:dark cycle with food and water available ad libitum. Pituitaries from ten rats were removed, the posterior pituitary discarded and the anterior pituitary placed in Hanks' Balanced Salt Solution (HBSS: without calcium chloride, w/o magnesium chloride, w/o magnesium sulfate; Gibco) containing 20 mM HEPES (Gibco) and 100 U/ml penicillin streptomycin (PS: JRH Biosciences). Under sterile conditions, pituitaries were rinsed twice then minced into small fragments with a razor blade. Fragments were resuspended in 5 ml of HBSS/HEPES containing 20 mg collagenase (Serva 17449) and […] of 1 mg/ml DNase (Sigma) for a 40 min. incubation in a 37° C. gyrotory water bath shaker (New Brunswick Scientific Model G76; setting 10). […] The cells were centrifuged 1000× g for 5 min, resuspended, counted and plated at a final cell concentration of 100,000 cells/ml. […] STATISTICS: The mean for each group was determined and analyzed by one-way analysis of variance with a post-hoc Student-Newman-Keuls. […] The EC50 was calculated using a 4-parameter curve-fit program (Kaleidagraph). […] RIA of pituitary hormones: LH, FSH, TSH, and Prolactin were determined with commercially available kits from Amersham, and ACTH levels were determined by a RIA kit from ICN. […]

For data set [2], the system named is LH. Description: LH release from pituitary cells (RIA). Format: cell-based, rat. Conditions: 100 nM; listed as (inip)-bbFK-NH2. As to the method: as §1
Data set [3] in a line: Combination GHRP and IGF-1 treatment of obese Zucker Diabetic Fatty (ZDF) rats. In kind it is in vivo, rat. As to the method:
Ten lean ZDF rats served as an additional control group.
This GHRP was given by sc. injection twice daily, each dose of 100 μl therefore containing 50 μg/injection or 100 μg/day.
Recombinant human IGF-1 (rhIGF-1) at 13.8 mg/ml in acetate buffer was loaded into osmotic minipumps (Alza, Palo Alto, model 2ML4, pump rate 2.29 μl/hr for 28 days, fill volume 2064 μl). Other pumps were filled with acetate buffer. […] The delivered dose of rhIGF-1 was therefore 758 μg/day. Recombinant human growth hormone (rhGH, Lot R9092AX, Genentech Inc.) was diluted in sterile water to 2.5 g/l and a 100 μl injection given twice daily (250 μg/injection, or 500 μg/day).
The next day the osmotic pumps were inserted into rats. […] All rats not receiving rhIGF-1 containing pumps were implanted with pumps delivering the acetate buffer excipient.
On day 24 blood was withdrawn after a 4 hour fast and 1.5 U/kg of regular insulin was injected i.p. and a second blood sample taken 30 minutes later. The rats were then sacrificed using carbon dioxide, bled from the heart, and organs taken. Serum glucose was measured by standard automated procedures.
Data are presented as mean±standard error (SE) of the mean with 8 rats per group.

Data set [4] relates to pituitary cells. The data set can be described thus: Calcium flux experiment (Indo-1 AM loaded pituitary cells). Conditions: 10 nM, 21 seconds after addition. Format: cell-based, rat.

The structures appear in SMILES notation. “Also recorded” adds a separate entry of the source. Where two headings read alike, the source gives them in different places.

Regarding `NCCCC[C@H](NC(=O)[C@H](Cc1ccccc1)NC(=O)[C@@H](Cc1ccc2ccccc2c1)NC(=O)[C@@H](Cc1ccc2ccccc2c1)NC(=O)C1CCNCC1)C(N)=O` [(inip) b b F K amide, (inip)-DβNal-DβNal-Phe-Lys-amide], the “serum IGF-1 concentrations” value (either mode of delivery) is reported as “not significantly affected”. For the same compound, the thymus weight is 0.25 ± 0.03 g (high dose infusion (100 μg/day)) and 0.33 ± 0.02 g (high dose injections). In addition, the epiphyseal plate width by setting is: (high dose injections) 191±8 μm; (low dose injections) 160±11 μm. Also, the heart weight (high dose injections) amounted to 1.15 ± 0.10 g. Besides, the “eviscerated and skinned carcass weight” value (high dose injections (50 μg 2 times a day)) is 152.4 ± 2.5 g; the “eviscerated and skinned carcass weight” value (low dose injections (10 μg 2 times a day)) amounted to 152.8 ± 2.8 g. In addition, the weight gain is, setting by setting: (in 14 days, FIG. 20) 36 ± 3 g; (twice daily injections of 10 μg, adult female rats) 30 gram. Further, the “cartilage growth (epiphyseal plate width)” value (infusions) is “did not significantly increase cartilage growth”. Besides, the “skin weight compared to control” value (injections and low dose infusion) is given as “heavier”. Moreover, the “soleus muscle, kidney and liver weight” value (injections or infusions, 14 days) was “unaffected”. Also, the TSH release result in data set [1] is given as “had no effect on these hormone concentrations; also recorded: unchanged”. The LH release entry in data set [2] is “had no effect on these hormone concentrations; also recorded: unchanged”. Also, the body weight gain in data set [3] (Day 2, obese ZDF male rats, GHRP 100 μg/d sc injection, rhIGF-1 758 μg/d pump, rhGH 500 μg/d) was 18.3 ± 1.0 g. Further, the “effect on insulin sensitivity (diabetogenic effect)” value in data set [3] (rat, in vivo) is “greatly reduced effect on insulin sensitivity (diabetogenic effect) than rhGH”. Further, the fasting blood glucose in data set [3] (rat, in vivo) is 386±63 mg %. Moreover, the serum insulin in data set [3] (rat, in vivo) was 39 ± 6 ng/mL. Besides, the “Ca++ flux” value in data set [4] (listed as (inip)-bbFK-NH2) was “increased Ca flux”; in data set [4] (listed as (inip)bbFK-NH2), “increased C^++ flux”.
